“And” between values parts separate entries of the source, which are not always exact repeats. Equal values may be shown once. Read-outs that look alike come from different tables or passages of the source.
Assays:
[1] = molecular target: T1, 5-HT2A receptor (Homo sapiens, UniProt P28223); assay: cell-based; format: cell-based; parameters: expressed in transfected cells; host or cells: HEK293, stably transfected; settings: Ca2+ flux; for EC50: HEK293; for Emax: HEK293, agonist, read-out: 5-HT2A % Act @ Max Dose
T1 sequence (P28223 whole entry): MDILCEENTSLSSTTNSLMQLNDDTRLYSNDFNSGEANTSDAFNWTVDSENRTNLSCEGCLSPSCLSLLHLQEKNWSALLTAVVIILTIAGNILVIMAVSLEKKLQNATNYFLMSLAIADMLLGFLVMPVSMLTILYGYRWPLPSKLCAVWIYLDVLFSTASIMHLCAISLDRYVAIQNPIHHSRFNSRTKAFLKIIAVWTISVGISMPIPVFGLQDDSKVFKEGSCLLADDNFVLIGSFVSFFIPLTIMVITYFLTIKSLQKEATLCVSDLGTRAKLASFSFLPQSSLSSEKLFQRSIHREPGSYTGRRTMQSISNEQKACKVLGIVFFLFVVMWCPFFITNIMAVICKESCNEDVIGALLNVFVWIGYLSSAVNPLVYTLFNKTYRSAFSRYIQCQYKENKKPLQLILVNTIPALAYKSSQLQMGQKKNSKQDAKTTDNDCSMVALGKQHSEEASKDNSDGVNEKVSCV
Experimental: (§1) Functional Assays at 5-HT2A, 5-HT2B, and 5-HT1A. Agonist activity at 5-HT2A, 5-HT2B, 5HT2C and 5-HT1A receptors was determined using a FLIPR Ca^2+ flux assay at WuXi AppTec (Hong Kong) Limited according to their standard protocols. Briefly, stably transfected cells expressing the receptor of interest and Gα15 in the case of 5-HT1A (HEK293 for 5-HT2A and 5-HT2B; CHO cells for 5-HT1A) were grown and plated in a 384 well plate and incubated at 37° C. and 5% CO2 overnight. A solution of 250 mM probenecid in 1 mL FLIPR assay buffer was prepared fresh. This was combined with a fluorescent dye (Fluo-4 Direct™) to make a final assay concentration of 2.5 mM. […] The fluorescent dye was then added to the assay plate along with assay buffer to a final volume of 40 μL. The cell plate was incubated for 50 min at 37° C. and 5% CO2 and placed into the FLIPR Tetra along with the compound plate. 10 μL of references and compounds were then transferred from the compound plate into the cell plate and the fluorescent signal was read.

[2] = molecular target: T2, 5-HT1A receptor (Homo sapiens, UniProt P08908); assay: cell-based; settings: agonist, Ca2+ flux; for Emax: CHO, read-out: 5-HT1A % Act @ Max Dose; for EC50: CHO cells with Gα15
T2 construct: expressed in transfected cells; host or cells: CHO cells, stably transfected
T2 sequence (P08908 1-422): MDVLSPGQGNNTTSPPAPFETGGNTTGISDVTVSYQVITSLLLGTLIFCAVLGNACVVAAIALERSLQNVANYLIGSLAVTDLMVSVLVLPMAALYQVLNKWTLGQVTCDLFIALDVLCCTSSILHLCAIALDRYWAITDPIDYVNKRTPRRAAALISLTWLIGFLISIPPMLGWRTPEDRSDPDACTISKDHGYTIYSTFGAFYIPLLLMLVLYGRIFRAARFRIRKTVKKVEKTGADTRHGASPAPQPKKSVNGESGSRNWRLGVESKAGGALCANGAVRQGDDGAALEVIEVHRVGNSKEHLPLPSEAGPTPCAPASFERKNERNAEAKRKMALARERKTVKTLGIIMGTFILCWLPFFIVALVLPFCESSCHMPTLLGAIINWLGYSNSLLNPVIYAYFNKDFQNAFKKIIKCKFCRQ
Experimental: as §1

[3] = in vitro; format: in vitro ADME, human; settings: human, microsomes, HLM 0.50 mg/mL, NADPH 1 mM, 1 μM compound, pH 7.4, 37° C., 60 min; for microsomal CLint: read-out: Intrinsic clearance (Clint); for half-life: read-out: half-life (t1/2)
[4] = in vitro; format: in vitro ADME, rat; settings: rat, microsomes, RLM (male Sprague-Dawley) 0.50 mg/mL, NADPH 1 mM, 1 μM compound, pH 7.4, 37° C., 60 min; for microsomal CLint: read-out: Intrinsic clearance (Clint); for half-life: read-out: half-life (t1/2)
Source text: RLM Stability Pooled RLM from male Sprague-Dawley rats (Xenotech R1000) were used.

[5] = molecular target: T1, 5-HT2A receptor; assay: biochemical; format: binding; parameters: expressed in transfected cells; host or cells: HEK293, stably transfected; settings: [3H]ketanserin 1 nM; HEK293 stable cell line; 1 h, 25 °C
Experimental: Affinity of the test compounds for the 5-HT2A receptor was determined in radioligand binding experiments with [^3H]ketanserin by WuXi AppTec (Hong Kong) Limited, using methods adapted from the literature and under conditions described in Table 1.

[6] = in vitro; format: in vitro ADME, mouse; settings: mouse, microsomes, MLM (male CD-1) 0.50 mg/mL, NADPH 1 mM, 1 μM compound, pH 7.4, 37° C., 60 min; for microsomal CLint: read-out: Intrinsic clearance (Clint); for half-life: read-out: half-life (t1/2)
Source text: MLM Stability Pooled MLM from male CD-1 mice (BIOIVT M00501) were used.

[7] = molecular target: T3, 5-HT2B receptor (Homo sapiens, UniProt P41595); assay: cell-based; format: cell-based; settings: Ca2+ flux; for Emax: HEK293, agonist, HEK293, max dose, read-out: 5-HT2B % Act @ Max Dose; for EC50: agonist, HEK293
T3 construct: expressed in transfected cells; host or cells: HEK293, stably transfected
T3 sequence (P41595 whole entry): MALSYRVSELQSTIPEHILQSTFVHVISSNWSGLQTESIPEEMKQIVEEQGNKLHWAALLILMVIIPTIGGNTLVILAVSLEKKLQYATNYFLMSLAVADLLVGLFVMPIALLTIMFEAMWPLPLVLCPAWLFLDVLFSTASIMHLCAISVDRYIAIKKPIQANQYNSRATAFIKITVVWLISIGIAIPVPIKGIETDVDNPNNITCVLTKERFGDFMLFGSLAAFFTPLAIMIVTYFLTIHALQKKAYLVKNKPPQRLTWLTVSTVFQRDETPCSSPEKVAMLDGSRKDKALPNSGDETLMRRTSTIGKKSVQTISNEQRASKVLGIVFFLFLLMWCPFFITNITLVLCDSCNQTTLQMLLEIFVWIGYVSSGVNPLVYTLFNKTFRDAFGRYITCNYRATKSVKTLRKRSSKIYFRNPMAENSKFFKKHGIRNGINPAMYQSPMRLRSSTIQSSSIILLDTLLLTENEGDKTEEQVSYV
Experimental: as §1

Row | Structure (SMILES) | EC50 ([1]; agonist) | 5-HT2A % Act @ Max Dose ([1]; agonist, HEK293, max dose) | 5-HT1A % Act @ Max Dose ([2]; CHO cells with Gα15, max dose) | microsomal CLint [3] | half-life [3] | microsomal CLint [4] | half-life [4] | Ki [5] | microsomal CLint [6] | half-life [6] | Emax ([1]; HEK293, max dose) | Emax ([2]; CHO cells with Gα15, max dose) | EC50 [2] | Emax [7] | EC50 [7]
1 | CCN(CC)C(=O)[C@@H]1C=C2c3cccc4[nH]cc(c34)C[C@H]2N(Cc2ncco2)C1 [Compound 74, (6aR,9R)—N,N-diethyl-7-(oxazol-2-ylmethyl)-4,6,6a,7,8,9-hexahydroindolo[4,3-fg]quinoline-9-carboxamide] | 289 nM and 54.3 nM | 63% and 89.01% | 51.28% and 82.73% | 45.5 µL/min/mg | 30.5 min | 71.7 µL/min/mg | 19.3 min | 52.5 nM | 83.3 µL/min/mg | 16.6 min |  |  |  |  | 
2 | O=C([C@@H]1C=C2c3cccc4[nH]cc(c34)C[C@H]2N(Cc2ccccc2)C1)N1CCCC1 [Compound 84, ((6aR,9R)-7-benzyl-4,6,6a,7,8,9-hexahydroindolo[4,3-fg]quinolin-9-yl)(pyrrolidin-1-yl)methanone] | 895 nM |  |  | 89.7 µL/min/mg | 15.5 min | 101 µL/min/mg | 13.7 min | 17.8 nM | 146 µL/min/mg | 9.5 min | 68.9% | 40.3% | 1.69 µM | 5.16% | > 10 µM
3 | CCCN(CC)C(=O)[C@@H]1C=C2c3cccc4[nH]cc(c34)C[C@H]2N(Cc2ccccc2)C1 [Compound 86, (6aR,9R)-7-benzyl-N-ethyl-N-propyl-4,6,6a,7,8,9-hexahydroindolo[4,3-fg]quinoline-9-carboxamide] | 933 nM |  |  | 128 µL/min/mg | 10.9 min | 117 µL/min/mg | 11.9 min | 1.6 nM | 380 µL/min/mg | 3.6 min | 67% | 49.1% | 15.5 µM | 7.82% | 1.28 µM
4 | C[C@H]1C[C@H](C)N1C(=O)[C@@H]1C=C2c3cccc4[nH]cc(c34)C[C@H]2N(Cc2ccccc2)C1 [Compound 87, ((6aR,9R)-7-benzyl-4,6,6a,7,8,9-hexahydroindolo[4,3-fg]quinolin-9-yl)((2S,4S)-2,4-dimethylazetidin-1-yl)methanone] | 669 nM |  |  | 97.2 µL/min/mg | 14.3 min | 60.1 µL/min/mg | 23 min | 2.1 nM | 681 µL/min/mg | 2 min | 61.2% | 58.2% | 54.1 µM | 10% | > 3 µM
5 | CC[C@@H](C)NC(=O)[C@@H]1C=C2c3cccc4[nH]cc(c34)C[C@H]2N(Cc2ccccc2)C1 [Compound 88, (6aR,9R)-7-benzyl-N—((R)-sec-butyl)-4,6,6a,7,8,9-hexahydroindolo[4,3-fg]quinoline-9-carboxamide] | 347 nM |  |  | 455 µL/min/mg | 3 min | 246 µL/min/mg | 5.6 min | 3.1 nM | 774 µL/min/mg | 1.8 min | 73.6% | 76.7% | 8.71 µM | 0.88% | > 10 µM
6 | CCN(CC)C(=O)[C@H]1C=C2c3cccc4[nH]cc(c34)C[C@H]2N(CC2CCCCC2)C1 [Compound 89a, (6aR,9S)-7-(cyclohexylmethyl)-N,N-diethyl-4,6,6a,7,8,9-hexahydroindolo[4,3-fg]quinoline-9-carboxamide] | > 1000 nM |  |  | 91.5 µL/min/mg | 15.2 min | 304 µL/min/mg | 4.6 min | 208 nM | 743 µL/min/mg | 1.9 min | 3.92% |  |  |  | 
7 | CCN(CC)C(=O)[C@H]1C=C2c3cccc4[nH]cc(c34)C[C@H]2N(CC2CCCC2)C1 [Compound 90a, (6aR,9S)-7-(cyclopentylmethyl)-N,N-diethyl-4,6,6a,7,8,9-hexahydroindolo[4,3-fg]quinoline-9-carboxamide] | > 1000 nM |  |  | 158 µL/min/mg | 8.8 min | 288 µL/min/mg | 4.8 min | 55.6 nM | 712 µL/min/mg | 1.9 min | 25.7% | 135% | > 100 µM | 21.9% | > 10 µM
8 | CCCN(CC)C(=O)[C@@H]1C=C2c3cccc4[nH]cc(c34)C[C@H]2N(Cc2cccc(OC)c2)C1 [Compound 93, (6aR,9R)—N-ethyl-7-(3-methoxybenzyl)-N-propyl-4,6,6a,7,8,9-hexahydroindolo[4,3-fg]quinoline-9-carboxamide] | 1200 nM |  |  | 152 µL/min/mg | 9.1 min | 423 µL/min/mg | 3.3 min | 4.73 nM | 600 µL/min/mg | 2.3 min | 44.6% | 21.1% | > 100 µM | 1.24% | > 10 µM
9 | COc1cccc(CN2C[C@H](C(=O)N3[C@@H](C)C[C@@H]3C)C=C3c4cccc5[nH]cc(c45)C[C@H]32)c1 [Compound 94, ((2S,4S)-2,4-dimethylazetidin-1-yl)((6aR,9R)-7-(3-methoxybenzyl)-4,6,6a,7,8,9-hexahydroindolo[4,3-fg]quinolin-9-yl)methanone] | 792 nM |  |  | 116 µL/min/mg | 11.9 min | 352 µL/min/mg | 3.9 min | 13.7 nM | 1340 µL/min/mg | 1 min | 30.4% | 64.8% | > 100 µM | -1.21% | > 10 µM
10 | CC[C@@H](C)NC(=O)[C@@H]1C=C2c3cccc4[nH]cc(c34)C[C@H]2N(Cc2cccc(OC)c2)C1 [Compound 95, (6aR,9R)—N—((R)-sec-butyl)-7-(3-methoxybenzyl)-4,6,6a,7,8,9-hexahydroindolo[4,3-fg]quinoline-9-carboxamide] | 642 nM |  |  | 685 µL/min/mg | 2 min | 1600 µL/min/mg | 0.9 min | 15.3 nM | 2020 µL/min/mg | 0.7 min | 63.8% | 63.2% | 42.9 µM | 0.13% | > 10 µM
11 | CCN(CC)C(=O)[C@H]1C=C2c3cccc4[nH]cc(c34)C[C@H]2N(Cc2ccc(C)cc2)C1 [Compound 97a, (6aR,9S)—N,N-diethyl-7-(4-methylbenzyl)-4,6,6a,7,8,9-hexahydroindolo[4,3-fg]quinoline-9-carboxamide] | > 1260 nM |  |  |  |  |  |  | > 1230 nM |  |  |  |  |  |  | 
12 | CCN(CC)C(=O)[C@@H]1C=C2c3cccc4[nH]cc(c34)C[C@H]2N(Cc2cccs2)C1 [Compound 104] | 844 nM |  |  |  |  |  |  | 1.42 nM |  |  |  |  | 0.73 µM |  | 0.731 µM

From patent publication US20260317319A1, “NOVEL ERGOLINES AND METHODS OF TREATING MOOD DISORDERS” (Gilgamesh Pharma Inc., priority 2023, published 2026)
